Source: article PMC8389655, “Au2phen and Auoxo6, Two Dinuclear Oxo-Bridged Gold(III) Compounds, Induce Apoptotic Signaling in Human Ovarian A2780 Cancer Cells” (Biomedicines, 2021)

Assays:
[1] = tested on: thioredoxin reductase (TrxR); settings: for effect on TrxR enzyme activity: A2780, 12 h treatment at 72 h IC50 dose; for inhibition of TrxR enzyme activity: A2780, 24 h treatment at 72 h IC50 dose, vs controls
Protocol: The total thioredoxin reductase (TrxR) activity was measured using a commercial colorimetric assay kit (#CS0170, Sigma Aldrich, St. Louis, MO, USA) based on the reduction of 5,5′-dithiobis (2-nitrobenzoic) acid (DTNB) with NADPH to 5-thio-2 nitrobenzoic acid (TNB) at 412 nm. This kit also contains an inhibitor solution of mammalian thioredoxin reductase. Since several enzymes present in the biological sample can reduce DTNB, the specific inhibitor is used to determine the reduction of DTNB due only to TrxR activity. […] Cells were lysed with RIPA buffer (50 mM Tris-HCl pH 7.0, 1% (v/v) NP-40, 150 mM NaCl, 2 mM ethylene glycol bis(2-aminoethyl ether)tetra-acetic acid, 100 mM NaF) supplemented with a cocktail of protease inhibitors. The protein concentrations in the cell lysates were determined by Bradford protein assay kit (Bio-Rad Laboratories, Hercules, USA) according to the manufacturer’s instructions and then 30 µg samples of proteins were used for the assay. Results were normalized to the cellular protein content.

[2] = tested on: intracellular ROS in A2780 cells; assay: Intracellular ROS evaluation (H2DCF-DA, flow cytometry); assay type: cell-based, human; settings: A2780, 48 h treatment at 72 h IC50 dose, H2DCFDA
Protocol: Within the cell, H2DCF-DA is de-acetylated by cellular esterases to a non-fluorescent compound, which becomes fluorescent once it is oxidized by cellular ROS into 2′,7′-dichlorofluorescein (DCF). Cells were trypsinized, washed, and incubated with 5 µM H2DCFDA for 30 min in the dark. Then, cells were washed again and immediately analyzed using a FACSCantoII (BD Biosciences, New Jersey, USA) flow cytometer.

[3] = tested on: mitochondrial membrane potential (Δψm) in A2780 cells; assay: Mitochondrial membrane potential (TMRM, flow cytometry); assay type: cell-based, human; settings: A2780, 48 h exposure at 72 h IC50 dose, compared to controls
Protocol: The mitochondrial membrane potential (Δψm) was measured using tetramethylrhodamine methyl ester perchlorate (TMRM), a lipophilic potentiometric fluorescent dye that distributes between the mitochondria and cytosol in proportion to Δψm by virtue of its positive charge. The amount of accumulated dye in the mitochondria, and consequently the signal intensity, is a direct function of mitochondrial potential. […] Cells were then trypsinized, washed with PBS, and incubated with 100 nM TMRM for 20 min in the dark at 37 °C. After labelling, cells were washed again, suspended in PBS, and analyzed using a FACSCantoII flow cytometer (BD Biosciences, New Jersey, USA).

[4] = tested on: mitochondrial respiration of A2780 cells; assay: Oxygen consumption rate (Clark-type O2 electrode); assay type: cell-based, human; settings: A2780, 24 h at 72 h IC50 dose, compared to controls
Protocol: (§1) The analysis of the oxygen consumption rate (OCR) was performed using a Clark-type O2 electrode inserted in a thermostated airtight chamber (Oxygraph Plus System, Hansatech Instruments, King’s Lynn, Norfolk, UK). Briefly, control and treated cells (12 and 24 h) were trypsinized, washed with PBS, and suspended in culture medium to measure the steady state OCR for 10 min. The OCR values, expressed as nmol of consumed O2/mL/min, were normalized to the cellular protein content. To evaluate the response of complex I, complex II/III, and ATP-synthase-driven OCRs in the presence or absence of gold-treatment, we used the protocol described by Baracca et al.. Cells were trypsinized, washed, and resuspended in buffer containing sucrose, TRIS-HCl, MgSO4, EDTA, and KH2PO4. Cell suspension was treated with digitonin to allow cell membrane permeabilization. To stimulate complex I, 250 mM glutamate/malate was added, whereas to stimulate complex II, 250 mM succinate was added (state 2 respiration). Then, to induce ATP-synthase-driven mitochondrial respiration, 10 mM ADP was added (state 3 respiration). To estimate the mitochondrial respiratory capacity, defined as the respiratory control ratio (RCR), state 3/state 2 ratios were calculated for control and treated cells.

[5] = tested on: complex II-driven mitochondrial respiration; assay: Respiratory control ratio, complex II-driven respiration in permeabilized cells; assay type: cell-based, human; settings: permeabilized A2780, 24 h treatment; control about 3.0
Protocol: as §1

OXPHOS complex I = assay: Western blot of OXPHOS complex I content; assay type: cell-based, human; settings: A2780, 24 h at 72 h IC50 dose, vs controls
Protocol: (§2) After drug treatments, cells were lysed in RIPA buffer supplemented with a cocktail of protease and phosphatase inhibitors. […] To favor the electrophoretic separation, 25% sample loading buffer (SLB) was added to the cell lysates. Here, 20 µg samples of proteins from controls and treated cells were loaded on 4–20% pre-cast SDS-PAGE gels and blotted onto PVDF membranes. Primary antibodies Bcl-2 (1:1000 dilution,#sc-7382, Santa Cruz, Dallas, Texas USA), Bax (1:1000 dilution, #sc-493, Santa Cruz), OXPHOS cocktail (1:1000 dilution, #ab110413, AbCam, Cambridge, UK), citrate synthase (1:1000 dilution, #sc-515640, Santa Cruz), ASK1 (1:1000 dilution, #sc-390275, Santa Cruz), phospho(Thr838)-ASK1 (1:1000 dilution, #CPA6042, Cohesion Biosciences, London, UK), AKT (1:1000 dilution, #sc-5298, Santa Cruz), and phospho(Ser473)-AKT (1:1000 dilution, #GTX128414, GeneTex, Irvine, CA, USA) were added to 2% non-fat dry milk in PBS-tween solution, while PVDF membranes were incubated overnight at 4 °C. Then, membranes were treated with horseradish peroxidase (HRP)-conjugated secondary antibodies (1:5000 dilution, Santa Cruz) and immunoreactive bands were detected with an ECL kit detection system on an Amersham Imager 600 (GE Healthcare, Chicago, IL, USA). For the quantification, a densitometric analysis of the bands was performed using ImageJ2 software version 2.0.0-rc-64 [23]. The intensities of the immunostained bands were normalized on the Coomassie brilliant blue R-250-stained total protein from the same PVDF membrane.

OXPHOS complex II = assay: Western blot of OXPHOS complex II content; assay type: cell-based, human; settings: A2780, 24 h at 72 h IC50 dose, vs controls
Protocol: as §2

[6] = tested on: lactate production of A2780 cells; assay: Lactate production assay (K-LATE kit) in culture medium; assay type: cell-based, human; settings: A2780, 24 h treatment at 72 h IC50 dose, vs controls
Protocol: The lactate amount was measured in cell culture media after 24 h of treatment with K-LATE kit (Megazyme, Bray, Ireland) according to the data sheet provided by the manufacturer. Lactate content was normalized on the protein content of the same sample.

AKT = assay: Western blot of phospho(Ser473)-AKT and total AKT; assay type: cell-based, human; settings: A2780, 24 h at 72 h IC50 dose, vs controls
Protocol: as §2

Which results are given for `Cc1ccc2ccc3ccc(C)[n+]4c3c2[n+]1[Au-]41[O][Au-]2([O]1)[n+]1c(C)ccc3ccc4ccc(C)[n+]2c4c31.F[P-](F)(F)(F)(F)F.F[P-](F)(F)(F)(F)F` [Au2phen, ((2,9-dimethyl-1,10-phenanthroline)2Au2(µ-O)2)(PF6)2]?
effect on TrxR enzyme activity [1]: clear tendency to inhibit the TrxR activity, even if the changes were not statistically significant; inhibition of TrxR enzyme activity [1]: ~ 26%; ROS increase vs control cells [2]: about 3.7 fold; cells bearing lower Δψm (low TMRM fluorescence) [3]: about 26%; reduction of oxygen consumption rate (OCR) [4]: 26.8%; respiratory control ratio (RCR), complex II-driven [5]: about 1.7; decrease of complex I protein content (OXPHOS complex I): 48%; decrease of complex II protein content (OXPHOS complex II): 66%; increase of lactate level in medium [6]: about 20%; reduction of phospho-AKT levels (phosphorylated-AKT/total AKT ratio) (AKT): about 12%

What does the source list for `CCOC(=O)CN(C)C1=[S+][Au-]([Br])([Br])[S]1` [AuL12, dibromo(ethylsarcosinedithiocarbamate)gold(III), reference compound]?
effect on TrxR enzyme activity [1]: clear tendency to inhibit the TrxR activity, even if the changes were not statistically significant; inhibition of TrxR enzyme activity [1]: about 50%; ROS increase vs control cells [2]: about 2.8 fold; cells bearing lower Δψm (low TMRM fluorescence) [3]: ~36%; reduction of oxygen consumption rate (OCR) [4]: 18%; respiratory control ratio (RCR), complex II-driven [5]: about 2.4; decrease of complex I protein content (OXPHOS complex I): 28%; decrease of complex II protein content (OXPHOS complex II): 40%; increase of lactate level in medium [6]: ~29%; reduction of phospho-AKT levels (phosphorylated-AKT/total AKT ratio) (AKT): ~17%

Which results are given for `Cc1cccc2[n+]1[Au-]1([O][Au-]3([O]1)[n+]1c(C)cccc1-c1cccc(C)[n+]13)[n+]1c(C)cccc1-2.F[P-](F)(F)(F)(F)F.F[P-](F)(F)(F)(F)F` [Auoxo6, ((6,6′-dimethyl-2,2′-bipyridine)2Au2(µ-O)2)(PF6)2]?
effect on TrxR enzyme activity [1]: clear tendency to inhibit the TrxR activity, even if the changes were not statistically significant; inhibition of TrxR enzyme activity [1]: about 50%; ROS increase vs control cells [2]: about 2.8 fold; cells bearing lower Δψm (low TMRM fluorescence) [3]: 17%; reduction of oxygen consumption rate (OCR) [4]: 24.7%; respiratory control ratio (RCR), complex II-driven [5]: about 1.8; decrease of complex I protein content (OXPHOS complex I): 50%; decrease of complex II protein content (OXPHOS complex II): 70%; increase of lactate level in medium [6]: ~25%; reduction of phospho-AKT levels (phosphorylated-AKT/total AKT ratio) (AKT): ~19%
